Laboratory results reported in the supplement of paper PMC10627819.

What was measured:
S. aureus Newman = assay: fitness (endpoint OD595 vs no drug) (fraction); higher = more growth
Summary of the method: (§1)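 With the first reading as background, OD595 was measured every 30 min for 14 h in 384-well plates kept at 37 °C and inoculated at OD595 0.01. TSB, LB Lennox or CY was the medium. Fitness is the optical density at the transition into stationary phase divided by the robust mean of no-drug control wells, with a cap of 1.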

S. pneumoniae D39V = assay: as above
Summary of the method: as §1
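Also: OD595 on entry to stationary phase over no-drug wells; at most 1.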

O=C(N[C@H](CO)[C@H](O)c1ccc([N+](=O)[O-])cc1)C(Cl)Cl [Chloramphenicol] + CC1(C)S[C@@H]2[C@H](NC(=O)Cc3ccccc3)C(=O)N2[C@H]1C(=O)O [Penicillin G]
fitness, S. aureus Newman
Conditions | first compound 0.75 µg/mL | first compound 1.5 µg/mL | first compound 3 µg/mL
partner 0.0195 µg/mL | 0.744 | 0.494 | 0.187
partner 0.039 µg/mL | 0.742 | 0.475 | 0.173
partner 0.078 µg/mL | 0.72 | 0.477 | 0.181

O=C(N[C@H](CO)[C@H](O)c1ccc([N+](=O)[O-])cc1)C(Cl)Cl [Chloramphenicol] + CC1=C(C(=O)O)N2C(=O)[C@@H](NC(=O)[C@H](N)c3ccccc3)[C@H]2SC1 [Cephalexin]
fitness, S. aureus Newman
Conditions | partner 0.25 µg/mL | partner 0.5 µg/mL | partner 1 µg/mL
first compound 0.75 µg/mL | 0.792 | 0.891 | 0.908
first compound 3 µg/mL | – | 0.312 | –

O=C(N[C@H](CO)[C@H](O)c1ccc([N+](=O)[O-])cc1)C(Cl)Cl [Chloramphenicol] + CO/N=C(\C(=O)N[C@@H]1C(=O)N2C(C(=O)O)=C(COC(N)=O)CS[C@H]12)c1ccco1 [Cefuroxime]
fitness, S. aureus Newman, one replicate
Conditions | first compound 0.75 µg/mL | first compound 1.5 µg/mL | first compound 3 µg/mL
partner 0.04875 µg/mL | 0.808 | 0.377 | –
partner 0.0975 µg/mL | 0.697 | 0.312 | 0.0949
partner 0.195 µg/mL | 0.64 | 0.206 | 0.065

O=C(N[C@H](CO)[C@H](O)c1ccc([N+](=O)[O-])cc1)C(Cl)Cl [Chloramphenicol] + O=C(O)[C@H]1/C(=C/CO)O[C@@H]2CC(=O)N21 [Clavulanic acid]
fitness, S. aureus Newman, one replicate
Conditions | first compound 0.75 µg/mL | first compound 1.5 µg/mL | first compound 3 µg/mL
partner 0.03125 µg/mL | 0.891 | 0.7 | 0.0864
partner 0.0625 µg/mL | 0.889 | 0.708 | –
partner 0.125 µg/mL | 0.85 | 0.494 | 0.11

CC[C@H]1OC(=O)[C@H](C)[C@@H](O[C@H]2C[C@@](C)(OC)[C@@H](O)[C@H](C)O2)[C@H](C)[C@@H](O[C@@H]2O[C@H](C)C[C@H](N(C)C)[C@H]2O)[C@](C)(OC)C[C@@H](C)C(=O)[C@H](C)[C@@H](O)[C@]1(C)O [Clarithromycin] + CC1=C(C(=O)O)N2C(=O)[C@@H](NC(=O)[C@H](N)c3ccccc3)[C@H]2SC1 [Cephalexin]
fitness, S. pneumoniae D39V, one replicate
Conditions | first compound 0.007812 µg/mL | first compound 0.01562 µg/mL | first compound 0.03125 µg/mL | first compound 0.0625 µg/mL | first compound 0.125 µg/mL | first compound 0.25 µg/mL
partner 0.125 µg/mL | – | – | – | 0.701 | 0.33 | 0.138
partner 0.25 µg/mL | – | – | – | 0.723 | 0.381 | 0.174
partner 0.5 µg/mL | – | – | – | 0.777 | 0.4 | 0.163
partner 1 µg/mL | 0.314 | 0.417 | 0.236 | – | – | –
partner 2 µg/mL | 0.028 | 0.0414 | 0.0229 | – | – | –
partner 4 µg/mL | 0.0398 | 0.0811 | 0.0306 | – | – | –

fitness, S. pneumoniae D39V
Conditions | first compound 0.07 µg/mL | first compound 0.14 µg/mL | first compound 0.28 µg/mL
partner 1 µg/mL | 0.0665 | 0.0755 | 0.0377
partner 2 µg/mL | 0.0399 | 0.0839 | 0.0276
partner 4 µg/mL | 0.0364 | 0.0743 | 0.0463

CC[C@H]1OC(=O)[C@H](C)[C@@H](O[C@H]2C[C@@](C)(OC)[C@@H](O)[C@H](C)O2)[C@H](C)[C@@H](O[C@@H]2O[C@H](C)C[C@H](N(C)C)[C@H]2O)[C@](C)(OC)C[C@@H](C)C(=O)[C@H](C)[C@@H](O)[C@]1(C)O [Clarithromycin] + CN(C)[C@@H]1C(O)=C(C(N)=O)C(=O)[C@@]2(O)C(O)=C3C(=O)c4c(O)ccc(Cl)c4[C@@](C)(O)[C@H]3C[C@@H]12 [Chlortetracycline]
fitness, S. pneumoniae D39V, one replicate
Conditions | first compound 0.007812 µg/mL | first compound 0.01562 µg/mL | first compound 0.03125 µg/mL
partner 0.012 µg/mL | 0.693 | 0.688 | 0.542
partner 0.024 µg/mL | 0.844 | 0.654 | 0.455
partner 0.048 µg/mL | 0.693 | 0.519 | 0.244

fitness, S. pneumoniae D39V
Conditions | first compound 0.0625 µg/mL | first compound 0.07 µg/mL | first compound 0.125 µg/mL | first compound 0.14 µg/mL | first compound 0.25 µg/mL | first compound 0.28 µg/mL
partner 0.012 µg/mL | – | 0.0902 | – | 0.14 | – | 0.093
partner 0.024 µg/mL | – | 0.121 | – | 0.122 | – | 0.0945
partner 0.048 µg/mL | – | 0.123 | – | 0.132 | – | 0.118
partner 0.375 µg/mL | 0.0643 | – | 0.0595 | – | 0.0683 | –
partner 0.75 µg/mL | 0.0438 | – | 0.0485 | – | 0.0679 | –
partner 1.5 µg/mL | 0.0386 | – | 0.0516 | – | 0.0374 | –

CC[C@H]1OC(=O)[C@H](C)[C@@H](O[C@H]2C[C@@](C)(OC)[C@@H](O)[C@H](C)O2)[C@H](C)[C@@H](O[C@@H]2O[C@H](C)C[C@H](N(C)C)[C@H]2O)[C@](C)(OC)C[C@@H](C)C(=O)[C@H](C)[C@@H](O)[C@]1(C)O [Clarithromycin] + CO/N=C(\C(=O)N[C@@H]1C(=O)N2C(C(=O)O)=C(COC(C)=O)CS[C@H]12)c1csc(N)n1 [Cefotaxime]
fitness, S. pneumoniae D39V, one replicate
Conditions | first compound 0.007812 µg/mL | first compound 0.01562 µg/mL | first compound 0.03125 µg/mL
partner 0.0018 µg/mL | 0.903 | 0.874 | 0.652
partner 0.0035 µg/mL | 0.922 | 0.868 | 0.662
partner 0.007 µg/mL | 0.704 | 0.698 | 0.596

fitness, S. pneumoniae D39V
Conditions | first compound 0.0625 µg/mL | first compound 0.07 µg/mL | first compound 0.125 µg/mL | first compound 0.14 µg/mL | first compound 0.25 µg/mL | first compound 0.28 µg/mL
partner 0.0018 µg/mL | 0.643 | 0.155 | 0.36 | 0.11 | 0.134 | 0.0567
partner 0.0035 µg/mL | 0.626 | 0.149 | 0.354 | 0.106 | 0.136 | 0.0647
partner 0.007 µg/mL | 0.532 | 0.103 | 0.296 | 0.108 | 0.0943 | 0.0726

CC[C@H]1OC(=O)[C@H](C)[C@@H](O[C@H]2C[C@@](C)(OC)[C@@H](O)[C@H](C)O2)[C@H](C)[C@@H](O[C@@H]2O[C@H](C)C[C@H](N(C)C)[C@H]2O)[C@](C)(OC)C[C@@H](C)C(=O)[C@H](C)[C@@H](O)[C@]1(C)O [Clarithromycin] + CO/N=C(\C(=O)N[C@@H]1C(=O)N2C(C(=O)[O-])=C(C[N+]3(C)CCCC3)CS[C@H]12)c1csc(N)n1 [Cefepime]
fitness, S. pneumoniae D39V, one replicate
Conditions | first compound 0.007812 µg/mL | first compound 0.01562 µg/mL | first compound 0.03125 µg/mL
partner 0.0078 µg/mL | 0.887 | 0.866 | 0.673
partner 0.0155 µg/mL | 0.884 | 0.834 | 0.635
partner 0.031 µg/mL | 0.456 | 0.491 | 0.456

fitness, S. pneumoniae D39V
Conditions | first compound 0.0625 µg/mL | first compound 0.07 µg/mL | first compound 0.125 µg/mL | first compound 0.14 µg/mL | first compound 0.25 µg/mL | first compound 0.28 µg/mL
partner 0.007 µg/mL | 0.67 | – | 0.43 | – | 0.165 | –
partner 0.0078 µg/mL | – | 0.187 | – | 0.0821 | – | 0.103
partner 0.014 µg/mL | 0.675 | – | 0.458 | – | 0.181 | –
partner 0.0155 µg/mL | – | 0.168 | – | 0.105 | – | 0.108
partner 0.028 µg/mL | 0.611 | – | 0.358 | – | 0.136 | –
partner 0.031 µg/mL | – | 0.0769 | – | 0.102 | – | 0.091

CC[C@H]1OC(=O)[C@H](C)[C@@H](O[C@H]2C[C@@](C)(OC)[C@@H](O)[C@H](C)O2)[C@H](C)[C@@H](O[C@@H]2O[C@H](C)C[C@H](N(C)C)[C@H]2O)[C@](C)(OC)C[C@@H](C)C(=O)[C@H](C)[C@@H](O)[C@]1(C)O [Clarithromycin] + CO[C@@]12[C@H](COC(N)=O)C3=C(C(=O)C(C)=C(N)C3=O)N1C[C@@H]1N[C@@H]12 [Mitomycin C]
fitness, S. pneumoniae D39V, one replicate
Conditions | first compound 0.007812 µg/mL | first compound 0.01562 µg/mL | first compound 0.03125 µg/mL
partner 0.002 µg/mL | 0.798 | 0.763 | 0.596
partner 0.004 µg/mL | 0.727 | 0.692 | 0.539
partner 0.008 µg/mL | 0.546 | 0.558 | 0.379

fitness, S. pneumoniae D39V
Conditions | first compound 0.0625 µg/mL | first compound 0.07 µg/mL | first compound 0.125 µg/mL | first compound 0.14 µg/mL | first compound 0.25 µg/mL | first compound 0.28 µg/mL
partner 0.001075 µg/mL | 0.654 | – | 0.345 | – | 0.084 | –
partner 0.002 µg/mL | – | 0.139 | – | 0.0901 | – | 0.0614
partner 0.00215 µg/mL | 0.642 | – | 0.285 | – | 0.108 | –
partner 0.004 µg/mL | – | 0.142 | – | 0.0707 | – | 0.0988
partner 0.0043 µg/mL | 0.526 | – | 0.245 | – | 0.0525 | –
partner 0.008 µg/mL | – | 0.0708 | – | 0.039 | – | 0.0676

CCC[C@@H]1C[C@@H](C(=O)N[C@@H]([C@H]2O[C@H](SC)[C@H](O)[C@@H](O)[C@H]2O)[C@H](C)Cl)N(C)C1 [Clindamycin] + CC1(C)S[C@@H]2[C@H](NC(=O)Cc3ccccc3)C(=O)N2[C@H]1C(=O)O [Penicillin G]
fitness, S. aureus Newman
Conditions | first compound 0.0312 µg/mL | first compound 0.0625 µg/mL | first compound 0.125 µg/mL
partner 0.0195 µg/mL | 0.639 | 0.416 | 0.0886
partner 0.039 µg/mL | 0.708 | – | 0.0624
partner 0.078 µg/mL | – | – | 0.0543

CCC[C@@H]1C[C@@H](C(=O)N[C@@H]([C@H]2O[C@H](SC)[C@H](O)[C@@H](O)[C@H]2O)[C@H](C)Cl)N(C)C1 [Clindamycin] + CC[C@H]1OC(=O)[C@H](C)[C@@H](O[C@H]2C[C@@](C)(OC)[C@@H](O)[C@H](C)O2)[C@H](C)[C@@H](O[C@@H]2O[C@H](C)C[C@H](N(C)C)[C@H]2O)[C@](C)(OC)C[C@@H](C)C(=O)[C@H](C)[C@@H](O)[C@]1(C)O [Clarithromycin]
fitness, S. pneumoniae D39V
Conditions | first compound 0.0125 µg/mL | first compound 0.015 µg/mL | first compound 0.025 µg/mL | first compound 0.03 µg/mL | first compound 0.05 µg/mL | first compound 0.06 µg/mL
partner 0.0625 µg/mL | 0.563 | – | 0.422 | – | 0.164 | –
partner 0.07 µg/mL | – | 0.136 | – | 0.11 | – | 0.0799
partner 0.125 µg/mL | 0.409 | – | 0.338 | – | 0.109 | –
partner 0.14 µg/mL | – | 0.087 | – | 0.081 | – | 0.115
partner 0.25 µg/mL | 0.181 | – | 0.121 | – | 0.0631 | –
partner 0.28 µg/mL | – | 0.0757 | – | 0.0789 | – | 0.0946

fitness, S. pneumoniae D39V, one replicate
Conditions | first compound 0.015 µg/mL | first compound 0.03 µg/mL | first compound 0.06 µg/mL
partner 0.007812 µg/mL | 0.728 | 0.578 | 0.283
partner 0.01562 µg/mL | 0.746 | 0.637 | 0.371
partner 0.03125 µg/mL | 0.635 | 0.557 | 0.175
